EC50 data for 97 molecules are collected here from PubChem BioAssay AID1404 (The Scripps Research Institute Molecular Screening Center, 2008).

Active and inactive are the calls of the source.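 How the source made its calls: active means EC50 for STAT3 reporter activation at or below 10 µM; inactive means the rest.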 A value given as a limit tells only on which side of the number the result lay.

The assay concerns U3A cells, IL-6 STAT3 luciferase reporter, luminescence. The assay can be described thus: IL-6-driven STAT3 luciferase signal enhancement – U3A cells, STAT1-deficient, luminescence, IL-6 stimulus, counter-screen for STAT1 activator project, dose response (AID 1404). In general terms: The purpose of a counterscreen is to sort out artefacts and off-target activity.
One may read the EC50 as the concentration at which the effect is half-maximal. `Clc1ccc(-n2ncc3c(NCC4CCCO4)ncnc32)cc1` (configuration not stated): the EC50 was > 55.7 µM (inactive).

On to `Cc1cc(C(=O)NCCC2=CCCCC2)c(C)o1`, for which the EC50 is > 55.7 µM (inactive).

On to `Cc1ccc2nc(NC(=O)CCn3cccc3)sc2c1`, for which the EC50 was > 55.7 µM (inactive).

For `O=C(/C=C/Nc1ccccc1F)c1ccc(Br)cc1`, the EC50 is > 55.7 µM (inactive).

Turning to `CC(=O)Nc1cccc(-c2cnc3ccccc3n2)c1`, the EC50 was > 55.7 µM (inactive).

Take `Cc1ccc(-c2cc3nc(C)cc(NCc4ccco4)n3n2)cc1`: the EC50 was > 55.7 µM (inactive).

Turning to `O=C(/C=C/Nc1ccc(F)cc1)c1ccc(Br)cc1`, the EC50 is > 55.7 µM (inactive).

As to `Nc1ccccc1Nc1cc(-c2ccccc2)[nH]n1`, the EC50 is > 55.7 µM (inactive).

With `Cc1ccc(C(=O)N2CCc3ccccc32)o1`, the EC50 is > 55.7 µM (inactive).

With `C=CCn1c(C)cc(C(=O)CSc2nc3ccccc3o2)c1C`, the EC50 is > 55.7 µM (inactive).

With `Cc1nc(-c2ccc(NC(=O)c3ccccc3C)cc2)cs1`, the EC50 is > 55.7 µM (inactive).

For the molecule `Cc1ncsc1C(=O)Nc1nc2c(s1)CCCC2`, the EC50 was > 55.7 µM (inactive).

For the molecule `CCc1c(C)[nH]c(C(=O)OCc2ccccc2)c1C`, the EC50 is > 55.7 µM (inactive).

In the case of `O=C(/C(C=Nc1ccc(Br)cc1)=C(/O)c1ccco1)C(F)(F)F`, the EC50 was > 55.7 µM (inactive).

Consider `CN(C)c1ccnc2sc(C(=O)c3ccccc3)c(N)c12`, for which the EC50 was > 55.7 µM (inactive).

As for `CCOC(=O)c1sc(NC(=O)c2sccc2C)cc1C`, the EC50 was > 55.7 µM (inactive).

In the case of `C=CCNC(=O)c1cc(-c2ccc(Br)cc2)on1`, the EC50 was > 55.7 µM (inactive).

As for `Cc1ccc(C(=O)/C=C/Nc2cccc([N+](=O)[O-])c2)o1`, the EC50 was > 55.7 µM (inactive).

With `CCOC(=O)CSc1nc(-c2ccncc2)ccc1C#N`, the EC50 is > 55.7 µM (inactive).

Consider `O=C(CCc1nnc(CCCc2ccccc2)o1)N1CCCCCC1`, for which the EC50 is > 55.7 µM (inactive).

`O=C(/C=C/c1ccco1)Nc1ccccn1`: the EC50 was > 55.7 µM (inactive).

Regarding `O=C(/C=C/c1ccccc1)Nc1ccc(Cl)cn1`, the EC50 is > 55.7 µM (inactive).

As to `COc1ccc(/C=C/C(=O)Nc2ccccc2)cc1OC`, the EC50 was > 55.7 µM (inactive).

`O=C(O)c1ccccc1C(=O)Nc1ccc(-c2csc(-c3ccccc3)n2)cc1`: the EC50 is > 55.7 µM (inactive).

`COc1ccc(NC(=S)Nc2ccc3nccnc3c2)cc1`: the EC50 was > 55.7 µM (inactive).

As to `COc1cc(NC(=O)c2csc3c2CCCC3)ncn1`, the EC50 was > 55.7 µM (inactive).

For the molecule `c1ccc(CNc2ccc3ccccc3n2)nc1`, the EC50 is > 55.7 µM (inactive).

Take `CC(C)=CC(=O)Nc1nc2ccc([N+](=O)[O-])cc2s1`: the EC50 is > 55.7 µM (inactive).

`O=[N+]([O-])c1ccccc1OCCCn1cnc2ccccc21`: the EC50 is > 55.7 µM (inactive).

As to `COc1ccc(-c2cc(C)nc3c(-c4ccccc4)cnn23)cc1`, the EC50 was > 55.7 µM (inactive).

As for `Nc1nc2ccc(-c3nc4ccccc4o3)cc2s1`, the EC50 was > 55.7 µM (inactive).

Consider `Cc1ccc(/C=C/C(=O)N2CCCC(C)C2)cc1` (configuration not stated), for which the EC50 is > 55.7 µM (inactive).

Regarding `Fc1ccc2nc(Nc3nc4cc5c(cc4s3)OCCO5)sc2c1`, the EC50 is > 55.7 µM (inactive).

`CC(=O)Nc1ccc(-c2csc(Nc3cccc(C)n3)n2)cc1`: the EC50 is > 55.7 µM (inactive).

For the molecule `O=C(/C=C/c1cccc(F)c1)N1CCc2ccccc21`, the EC50 was > 55.7 µM (inactive).

Regarding `COc1ccc(Nc2oc(-c3cccs3)nc2C#N)cc1`, the EC50 was > 55.7 µM (inactive).

Regarding `O=C(Nc1ccc(-c2nc3cccnc3s2)cc1)c1ccco1`, the EC50 is > 55.7 µM (inactive).

As to `O=C(OCc1csc(-c2ccccc2)n1)c1cccs1`, the EC50 was > 55.7 µM (inactive).

Take `O=C(Nc1ccc2c(c1)OCCO2)c1ccc(Br)s1`: the EC50 is > 55.7 µM (inactive).

On to `Nc1ncc(-c2cc3ccccc3oc2=O)s1`, for which the EC50 is > 55.7 µM (inactive).

With `CCCCOC(=O)Nc1nc2ccccc2s1`, the EC50 was > 55.7 µM (inactive).

As for `O=C(Cn1cnc2ccccc2c1=O)c1ccc(Cl)cc1`, the EC50 was > 55.7 µM (inactive).

Turning to `COc1ccc2[nH]c3c(c2c1)CCn1c-3nc2ccccc2c1=O`, the EC50 is > 55.7 µM (inactive).

Take `C=CCNc1nc(-c2cc3ccccc3o2)cs1`: the EC50 was > 55.7 µM (inactive).

In the case of `C=CCNC(=S)NNC(=O)COc1ccc2cc(Br)ccc2c1`, the EC50 is > 55.7 µM (inactive).

On to `COc1ccc(-c2nc3ccc([N+](=O)[O-])cc3[nH]2)cc1`, for which the EC50 was > 55.7 µM (inactive).

As to `N#C/C(=C\c1ccc(N2CCOCC2)o1)c1nc2ccccc2[nH]1`, the EC50 was > 55.7 µM (inactive).

Consider `CCCOC(=O)c1ccc(-c2ccc(C=O)o2)cc1`, for which the EC50 was > 55.7 µM (inactive).

On to `c1cncc(-c2nc3cc4ccccc4cc3[nH]2)c1`, for which the EC50 is > 55.7 µM (inactive).

Turning to `CCCCCNc1nc(-c2ccccc2)cs1`, the EC50 was > 55.7 µM (inactive).

Regarding `O=C(NC(=S)Nc1ccccn1)c1ccc([N+](=O)[O-])cc1`, the EC50 is > 55.7 µM (inactive).

Turning to `CCc1ccc(NC(=O)N2CCC(c3ccccc3)C2)cc1` (configuration not stated), the EC50 is > 55.7 µM (inactive).

For the molecule `CC(=O)COc1ccc2c(C)c(-c3ccccc3)c(=O)oc2c1`, the EC50 was > 55.7 µM (inactive).

Take `Cc1ccc(-c2cc(N)n(-c3ccccc3)n2)cc1`: the EC50 is > 55.7 µM (inactive).

Take `CCOc1ccc2nc(N3CCOCC3)nc(C)c2c1`: the EC50 is > 55.7 µM (inactive).

With `Cc1occc1C(=O)Nc1ccc2c(c1)CCC2`, the EC50 is > 55.7 µM (inactive).

As for `CCC(C)NC(=O)c1cc(-c2ccc(OC)cc2)on1` (configuration not stated), the EC50 was > 55.7 µM (inactive).

For the molecule `Nc1ccccc1C(=O)OCC(=O)N1CCc2ccccc21`, the EC50 is > 55.7 µM (inactive).

Regarding `CN1C(=O)/C(=C/C=C2\SCCN2C)SC1=S`, the EC50 was > 55.7 µM (inactive).

For the molecule `CC(=O)NC(=S)Nc1sc2c(c1C#N)CCCCC2`, the EC50 was > 55.7 µM (inactive).

`CC(=O)c1cccc(N/C=C\C(=O)c2ccc(C)cc2)c1`: the EC50 is > 55.7 µM (inactive).

Turning to `Cc1nc(-c2ccc(NC(=O)c3ccccc3Br)cc2)cs1`, the EC50 was > 55.7 µM (inactive).

In the case of `Cc1cccc(Nc2n[nH]c(C)c2[N+](=O)[O-])c1`, the EC50 was > 55.7 µM (inactive).

Consider `O=C(Nc1nccs1)c1ccc(-c2ccc([N+](=O)[O-])cc2)o1`, for which the EC50 was > 55.7 µM (inactive).

On to `Cc1ccc(C(=O)Nc2nc3ccccc3s2)s1`, for which the EC50 was > 55.7 µM (inactive).

Take `Cc1ccc(NC(=O)Nc2ccc3oc(C)nc3c2)cc1`: the EC50 is > 55.7 µM (inactive).

As to `COc1ccc2nc(Nc3nc(C)c(C(C)=O)s3)sc2c1`, the EC50 is > 55.7 µM (inactive).

Regarding `COc1ccc(N/C=C\C(=O)c2ccc3c(c2)OCO3)cc1OC`, the EC50 is > 55.7 µM (inactive).

Regarding `Cc1nc2ccc3nc(NC(=O)c4ccco4)sc3c2s1`, the EC50 was > 55.7 µM (inactive).

For `CCOC(=O)/C(C#N)=C/c1cc(C)n(-c2ccccc2)c1C`, the EC50 is > 55.7 µM (inactive).

On to `COc1ccc2nc(Nc3ccc4c(c3)OCO4)sc2c1`, for which the EC50 is > 55.7 µM (inactive).

On to `CC(C)(C)N=C1NN=C(c2cc3ccccc3o2)CS1`, for which the EC50 was > 55.7 µM (inactive).

With `CCOC(=O)c1cnc2c(-c3ccccc3)cnn2c1N`, the EC50 is > 55.7 µM (inactive).

For the molecule `CC(=O)c1cccc(NC(=S)NC(=O)c2cccc(C)c2)c1`, the EC50 is > 55.7 µM (inactive).

`Cc1ccc(-c2cnc(-c3ccncc3)o2)cc1`: the EC50 was > 55.7 µM (inactive).

Take `Nc1ccc2oc(-c3ccccc3Cl)nc2c1`: the EC50 is > 55.7 µM (inactive).

In the case of `O=C(NC(=S)Nc1ccc(F)cc1)c1ccc2c(c1)OCCO2`, the EC50 is > 55.7 µM (inactive).

Take `CCN(CC)c1ccc2cc(C(=O)Nc3ccccn3)c(=O)oc2c1`: the EC50 is > 55.7 µM (inactive).

For `CC(C)Oc1ccc2c(=O)c(-c3ccccc3)coc2c1`, the EC50 was > 55.7 µM (inactive).

On to `COc1ccc2c(c1)oc(=O)c1cc(OC)ccc12`, for which the EC50 was > 55.7 µM (inactive).

Regarding `Cc1ccc(C(=O)Nc2nc3c(s2)CCCC3)o1`, the EC50 is > 55.7 µM (inactive).

For the molecule `O=C(Nc1cccc(Cl)c1)c1ccc2c(=O)n3c(nc2c1)CCCCC3`, the EC50 is > 55.7 µM (inactive).

As for `CN(C)c1ccc(C(=O)OCC(=O)c2cccs2)cc1`, the EC50 is > 55.7 µM (inactive).

As to `Cc1ccc(/C=C/C(=O)Nc2ccccc2C(N)=O)cc1`, the EC50 is > 55.7 µM (inactive).

As to `c1csc(C2=NNC(=NC3CCCCC3)SC2)c1`, the EC50 is > 55.7 µM (inactive).

On to `CCNc1nc(-c2cc3ccccc3o2)cs1`, for which the EC50 is > 55.7 µM (inactive).

With `COc1cccc(N/C=C/C(=O)c2ccc(Cl)cc2)c1`, the EC50 is > 55.7 µM (inactive).

`CN(C)c1nc(N)nc(CSc2nc3cc(Cl)ccc3o2)n1`: the EC50 was > 55.7 µM (inactive).

For `CCOCC(=O)Nc1nc2ccc(OCC)cc2s1`, the EC50 is > 55.7 µM (inactive).

As for `COc1cccc(NC(=O)Nc2ccc(C(C)(C)C)cc2)c1`, the EC50 is > 55.7 µM (inactive).

As to `O=C(/C(C=Nc1ccc(F)cc1)=C(/O)c1ccco1)C(F)(F)F`, the EC50 was > 55.7 µM (inactive).

As for `O=C(c1ccccc1)c1ccc(N2CCCC2)cc1`, the EC50 is > 55.7 µM (inactive).

Turning to `CCc1ccc(Nc2ncc3c(n2)CC(C)CC3=O)cc1` (configuration not stated), the EC50 was > 55.7 µM (inactive).

With `Clc1ccc(-n2ncc3c(N4CCCC4)ncnc32)cc1`, the EC50 was > 55.7 µM (inactive).

For `Cc1nnc(SCC(=O)Nc2ccc(-c3nc4ccccc4s3)cc2)s1`, the EC50 is > 55.7 µM (inactive).

Turning to `NC(=O)Cc1ccc2sc(-c3ccccc3)nc2c1`, the EC50 was > 55.7 µM (inactive).

As for `C/C(=C\c1ccccc1)C(=O)Nc1nccs1`, the EC50 was > 55.7 µM (inactive).
